From patent US7309788B2, “Method for preparing pyrimidinone compound and pharmaceutically acceptable salts thereof” (Boryung Pharmaceutical Co., Ltd., priority 2001, dated 2007)

Test: Stability: hourly moisture content (moisture absorption from the air)
Assay type: physicochemical
Description: As a result, the moisture content increased, as the time went by. […] The elementary analysis data for the aforementioned hydrates is illustrated in the following Table 2.

CCCCc1nc(C)c(CC(=S)N(C)C)c(=O)n1Cc1ccc(-c2ccccc2-c2nnn[nH]2)cc1 [Example 3, 2-n-butyl-5-dimethylaminothiocarbonylmethyl-6-methyl-3-[[2′-(1 H-tetrazol-5-yl)biphenyl-4-yl]methyl]-pyrimidin-4(3H)-one]
moisture content (60% RH, Time 1 hour): 6.2%
moisture content (60% RH, Time 2 hour): 9.1%
moisture content (60% RH, Time 3 hour): 9.15%
moisture content (60% RH, Time 4 hour): 9.1%
moisture content (60% RH, Time 5 hour): 9.2%
moisture content (60% RH, Time 6 hour): 9.1%
moisture content (75% RH, Time 1 hour): 9.05%
moisture content (75% RH, Time 2 hour): 9.1%
moisture content (75% RH, Time 3 hour): 9.1%
moisture content (75% RH, Time 4 hour): 9.15%
moisture content (75% RH, Time 5 hour): 9.2%
moisture content (75% RH, Time 6 hour): 9.1%
moisture content (Room temperature & Room humidity, Time 1 hour): 3.4%
moisture content (Room temperature & Room humidity, Time 2 hour): 5.6%
moisture content (Room temperature & Room humidity, Time 3 hour): 9.1%
moisture content (Room temperature & Room humidity, Time 4 hour): 9.2%
moisture content (Room temperature & Room humidity, Time 5 hour): 9.1%
moisture content (Room temperature & Room humidity, Time 6 hour): 9.1%
